Results reported in PubChem BioAssay (NCI).
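Cells were grown in 96-well plates and exposed to each compound for 48 hours at five concentrations; endpoints were interpolated linearly between bracketing concentrations, or set to the highest concentration if not reached. TGI is the concentration that stops growth completely.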

How the values were obtained:
Assay in all cases: DTP human tumour cell line panel, 48 h
HCT-15 colon = system: HCT-15 colon
HL-60(TB) leukemia = system: HL-60(TB) leukemia
SK-MEL-2 melanoma = system: SK-MEL-2 melanoma
MCF7 breast = system: MCF7 breast
SK-MEL-5 melanoma = system: SK-MEL-5 melanoma
786-0 renal = system: 786-0 renal
TK-10 renal = system: TK-10 renal
OVCAR-3 ovarian = system: OVCAR-3 ovarian
SNB-19 CNS = system: SNB-19 CNS
PC-3 prostate = system: PC-3 prostate
MOLT-4 leukemia = system: MOLT-4 leukemia
NCI-H226 lung = system: NCI-H226 lung
HT29 colon = system: HT29 colon
NCI/ADR-RES ovarian = system: NCI/ADR-RES ovarian
OVCAR-8 ovarian = system: OVCAR-8 ovarian
CCRF-CEM leukemia = system: CCRF-CEM leukemia
ACHN renal = system: ACHN renal
IGROV1 ovarian = system: IGROV1 ovarian
SK-MEL-28 melanoma = system: SK-MEL-28 melanoma
UACC-62 melanoma = system: UACC-62 melanoma
A498 renal = system: A498 renal
M14 melanoma = system: M14 melanoma
K-562 leukemia = system: K-562 leukemia
OVCAR-5 ovarian = system: OVCAR-5 ovarian
SNB-75 CNS = system: SNB-75 CNS
SF-268 CNS = system: SF-268 CNS
RPMI-8226 leukemia = system: RPMI-8226 leukemia
NCI-H23 lung = system: NCI-H23 lung
COLO 205 colon = system: COLO 205 colon
HOP-62 NSCLC = system: HOP-62 NSCLC
HCT-116 colon = system: HCT-116 colon
NCI-H522 lung = system: NCI-H522 lung
A549 NSCLC = system: A549 NSCLC
LOX IMVI melanoma = system: LOX IMVI melanoma
EKVX NSCLC = system: EKVX NSCLC
BT-549 breast = system: BT-549 breast
MDA-MB-231 breast = system: MDA-MB-231 breast
SF-539 CNS = system: SF-539 CNS
MALME-3M melanoma = system: MALME-3M melanoma
CAKI-1 renal = system: CAKI-1 renal
HS 578T breast = system: HS 578T breast
T-47D breast = system: T-47D breast
SR leukemia = system: SR leukemia
MDA-MB-435 = system: MDA-MB-435
RXF 393 renal = system: RXF 393 renal
HOP-92 NSCLC = system: HOP-92 NSCLC
UACC-257 melanoma = system: UACC-257 melanoma
UO-31 renal = system: UO-31 renal
U251 CNS = system: U251 CNS
DU-145 prostate = system: DU-145 prostate
KM12 colon = system: KM12 colon
SN12C renal = system: SN12C renal
SW-620 colon = system: SW-620 colon
HCC-2998 colon = system: HCC-2998 colon
NCI-H460 lung = system: NCI-H460 lung
SF-295 CNS = system: SF-295 CNS
MDA-N = system: MDA-N
OVCAR-4 ovarian = system: OVCAR-4 ovarian
SK-OV-3 ovarian = system: SK-OV-3 ovarian

Molecule `COc1ccc(/C=C2\c3cc(OC)c(OC)cc3CCN2C(=O)c2ccccc2)cc1OC` has a TGI (HCT-15 colon) of over 100 µM, a TGI (HL-60(TB) leukemia) of 65 µM and a TGI (SK-MEL-2 melanoma) of over 100 µM. It also gave a TGI (MCF7 breast) of over 100 µM, a TGI (SK-MEL-5 melanoma) of 45 µM and a TGI (786-0 renal) of over 100 µM. It also gave a TGI (TK-10 renal) of over 100 µM, a TGI (OVCAR-3 ovarian) of over 100 µM and a TGI (SNB-19 CNS) of over 100 µM. For the same molecule, the TGI (PC-3 prostate) was over 100 µM, the TGI (MOLT-4 leukemia) was 80.6 µM and the TGI (NCI-H226 lung) was over 100 µM. It also gave a TGI (HT29 colon) of over 100 µM, a TGI (NCI/ADR-RES ovarian) of 76.4 µM and a TGI (OVCAR-8 ovarian) of over 100 µM. It also gave a TGI (CCRF-CEM leukemia) of 98.4 µM, a TGI (ACHN renal) of over 100 µM and a TGI (IGROV1 ovarian) of over 100 µM. For the same molecule, the TGI (SK-MEL-28 melanoma) was over 100 µM, the TGI (UACC-62 melanoma) was over 100 µM and the TGI (A498 renal) was over 100 µM. The TGI (M14 melanoma) was over 100 µM, the TGI (K-562 leukemia) was over 100 µM and the TGI (OVCAR-5 ovarian) was over 100 µM. It also gave a TGI (SNB-75 CNS) of over 100 µM, a TGI (SF-268 CNS) of over 100 µM and a TGI (RPMI-8226 leukemia) of over 100 µM. The TGI (NCI-H23 lung) was over 100 µM, the TGI (COLO 205 colon) was over 100 µM and the TGI (HOP-62 NSCLC) was over 100 µM. The TGI (HCT-116 colon) was over 100 µM, the TGI (NCI-H522 lung) was 45.4 µM and the TGI (A549 NSCLC) was over 100 µM. It also gave a TGI (LOX IMVI melanoma) of over 100 µM, a TGI (EKVX NSCLC) of over 100 µM and a TGI (BT-549 breast) of over 100 µM. It also gave a TGI (MDA-MB-231 breast) of over 100 µM, a TGI (SF-539 CNS) of over 100 µM and a TGI (MALME-3M melanoma) of 71.1 µM. The TGI (CAKI-1 renal) was over 100 µM, the TGI (HS 578T breast) was over 100 µM and the TGI (T-47D breast) was 86.8 µM. The TGI (SR leukemia) was over 100 µM, the TGI (MDA-MB-435) was 49 µM and the TGI (RXF 393 renal) was over 100 µM. For the same molecule, the TGI (HOP-92 NSCLC) was over 100 µM, the TGI (UACC-257 melanoma) was over 100 µM and the TGI (UO-31 renal) was over 100 µM. For the same molecule, the TGI (U251 CNS) was over 100 µM, the TGI (DU-145 prostate) was over 100 µM and the TGI (KM12 colon) was over 100 µM. For the same molecule, the TGI (SN12C renal) was over 100 µM, the TGI (SW-620 colon) was over 100 µM and the TGI (HCC-2998 colon) was over 100 µM. For the same molecule, the TGI (NCI-H460 lung) was 87.6 µM, the TGI (SF-295 CNS) was over 100 µM and the TGI (MDA-N) was 65.2 µM.
`C=C1CC/C=C(\C)CCC[C@H](C)[C@@H](O)[C@@H]2OC(=O)C(=C)[C@@H]2C[C@H]1O` was tested, and the TGI (HCT-15 colon) was 13.1 µM, the TGI (HL-60(TB) leukemia) was over 100 µM and the TGI (SK-MEL-2 melanoma) was 27 µM. For the same molecule, the TGI (MCF7 breast) was over 42.7 µM, the TGI (SK-MEL-5 melanoma) was 22.6 µM and the TGI (786-0 renal) was 18.6 µM. The TGI (TK-10 renal) was 4.5 µM, the TGI (OVCAR-3 ovarian) was 22.6 µM and the TGI (SNB-19 CNS) was 28.7 µM. It also gave a TGI (PC-3 prostate) of 23.1 µM, a TGI (MOLT-4 leukemia) of 9.62 µM and a TGI (NCI-H226 lung) of 11.5 µM. It also gave a TGI (HT29 colon) of 15.2 µM, a TGI (NCI/ADR-RES ovarian) of 27.2 µM and a TGI (OVCAR-8 ovarian) of 16.7 µM. For the same molecule, the TGI (ACHN renal) was 9.5 µM, the TGI (IGROV1 ovarian) was 13.8 µM and the TGI (SK-MEL-28 melanoma) was 22.2 µM. It also gave a TGI (UACC-62 melanoma) of 25.9 µM, a TGI (A498 renal) of over 100 µM and a TGI (M14 melanoma) of 28.4 µM. It also gave a TGI (K-562 leukemia) of over 38.8 µM, a TGI (OVCAR-5 ovarian) of 39.2 µM and a TGI (SNB-75 CNS) of 24.7 µM. The TGI (SF-268 CNS) was 23.1 µM, the TGI (RPMI-8226 leukemia) was over 21.9 µM and the TGI (NCI-H23 lung) was 26.8 µM. The TGI (COLO 205 colon) was 29.9 µM, the TGI (HOP-62 NSCLC) was 30.8 µM and the TGI (OVCAR-4 ovarian) was 51.7 µM. It also gave a TGI (HCT-116 colon) of 30.5 µM, a TGI (NCI-H522 lung) of 4.96 µM and a TGI (A549 NSCLC) of 33.9 µM. The TGI (LOX IMVI melanoma) was 25.9 µM, the TGI (EKVX NSCLC) was over 42.6 µM and the TGI (BT-549 breast) was 3 µM. The TGI (MDA-MB-231 breast) was 50.5 µM, the TGI (SF-539 CNS) was 6.94 µM and the TGI (MALME-3M melanoma) was 22.1 µM. The TGI (SK-OV-3 ovarian) was over 64.1 µM, the TGI (CAKI-1 renal) was 17 µM and the TGI (HS 578T breast) was 33.9 µM. For the same molecule, the TGI (T-47D breast) was 47.1 µM, the TGI (SR leukemia) was over 100 µM and the TGI (MDA-MB-435) was 17.3 µM. For the same molecule, the TGI (RXF 393 renal) was 22.2 µM, the TGI (HOP-92 NSCLC) was 7.22 µM and the TGI (UACC-257 melanoma) was 31.9 µM. It also gave a TGI (UO-31 renal) of 19.2 µM, a TGI (U251 CNS) of 50.2 µM and a TGI (DU-145 prostate) of 17.8 µM. For the same molecule, the TGI (KM12 colon) was 29.9 µM, the TGI (SN12C renal) was 42 µM and the TGI (SW-620 colon) was over 32.4 µM. It also gave a TGI (HCC-2998 colon) of 50.5 µM, a TGI (NCI-H460 lung) of 27.1 µM and a TGI (SF-295 CNS) of 32.9 µM. The TGI (MDA-N) was 35.9 µM.
Work on `CCOC(=O)c1nc2cc(F)c(N3CCOCC3)cc2[nH]c1=O` yielded a TGI (HCT-15 colon) of over 100 µM, a TGI (HL-60(TB) leukemia) of over 100 µM and a TGI (SK-MEL-2 melanoma) of over 100 µM. The TGI (MCF7 breast) was over 100 µM, the TGI (SK-MEL-5 melanoma) was over 100 µM and the TGI (786-0 renal) was over 100 µM. For the same molecule, the TGI (TK-10 renal) was over 100 µM, the TGI (OVCAR-3 ovarian) was over 100 µM and the TGI (SNB-19 CNS) was over 100 µM. For the same molecule, the TGI (PC-3 prostate) was over 100 µM, the TGI (MOLT-4 leukemia) was over 100 µM and the TGI (NCI-H226 lung) was over 100 µM. It also gave a TGI (HT29 colon) of over 100 µM, a TGI (NCI/ADR-RES ovarian) of over 100 µM and a TGI (OVCAR-8 ovarian) of over 100 µM. The TGI (CCRF-CEM leukemia) was over 100 µM, the TGI (ACHN renal) was over 100 µM and the TGI (IGROV1 ovarian) was over 100 µM. It also gave a TGI (SK-MEL-28 melanoma) of over 100 µM, a TGI (UACC-62 melanoma) of over 100 µM and a TGI (A498 renal) of over 100 µM. The TGI (M14 melanoma) was over 100 µM, the TGI (K-562 leukemia) was over 100 µM and the TGI (OVCAR-5 ovarian) was over 100 µM. For the same molecule, the TGI (SNB-75 CNS) was over 100 µM, the TGI (SF-268 CNS) was over 100 µM and the TGI (RPMI-8226 leukemia) was over 100 µM. For the same molecule, the TGI (NCI-H23 lung) was over 100 µM, the TGI (COLO 205 colon) was over 100 µM and the TGI (HOP-62 NSCLC) was over 100 µM. It also gave a TGI (OVCAR-4 ovarian) of over 100 µM, a TGI (HCT-116 colon) of over 100 µM and a TGI (NCI-H522 lung) of over 100 µM. For the same molecule, the TGI (A549 NSCLC) was over 100 µM, the TGI (EKVX NSCLC) was over 100 µM and the TGI (BT-549 breast) was over 100 µM. The TGI (MDA-MB-231 breast) was over 100 µM, the TGI (SF-539 CNS) was over 100 µM and the TGI (MALME-3M melanoma) was over 100 µM. The TGI (SK-OV-3 ovarian) was over 100 µM, the TGI (CAKI-1 renal) was over 100 µM and the TGI (HS 578T breast) was over 100 µM. It also gave a TGI (T-47D breast) of over 100 µM, a TGI (SR leukemia) of over 100 µM and a TGI (MDA-MB-435) of over 100 µM. For the same molecule, the TGI (RXF 393 renal) was over 100 µM, the TGI (HOP-92 NSCLC) was over 100 µM and the TGI (UACC-257 melanoma) was over 100 µM. The TGI (UO-31 renal) was over 100 µM, the TGI (U251 CNS) was over 100 µM and the TGI (DU-145 prostate) was over 100 µM. The TGI (KM12 colon) was over 100 µM, the TGI (SN12C renal) was over 100 µM and the TGI (SW-620 colon) was over 100 µM. The TGI (HCC-2998 colon) was over 100 µM, the TGI (NCI-H460 lung) was over 100 µM and the TGI (SF-295 CNS) was over 100 µM. For the same molecule, the TGI (MDA-N) was over 100 µM.
